Assays:
[1] = tested on: Soybean; test: Post-emergent herbicidal test, Soybean; type: in vivo; details: Glycine max, 504 h; post-emergence; 33 micrograms/cm^2; 3 weeks; read-out: Herbicidal Activity Post-Emergence % Control Soybean
[2] = tested on: Pigweed (Amaranthus retraflexus); test: Pre-emergent herbicidal test, Pigweed; type: in vivo; details: 504 h, pre-emergence, 33 micrograms/cm^2, 3 weeks
Experimental: (§1) An acetone solution of the test compound was prepared by mixing 750 mg of the compound, 220 mg of a nonionic surfactant and 25 ml of acetone. This solution was added to approximately 125 ml of water containing 156 mg of surfactant.
(§2) Seeds of the test vegetation were planted in a pot of […] and the test solution was sprayed uniformly onto the soil surface at a dose of 33 micrograms/cm^2. The pot was watered and placed in a greenhouse. […] At the end of this period, the herbicidal effectiveness of the compound was rated based on the physiological observations. A 0-to-100 scale was used, 0 representing no phytotoxicity, 100 representing complete kill.

[3] = tested on: Phytophthora infestans; test: whole plant or invertebrate; type: in vivo; details: in Solanum lycopersicum, read-out: % Control Tom. L. Bl.
[4] = tested on: Soybean; test: Pre-emergent herbicidal test, Soybean; type: in vivo; details: Glycine max, 504 h; pre-emergence; 33 micrograms/cm^2; 3 weeks; read-out: Herbicidal Activity Pre-Emergence % Control Soybean
Experimental: as §1, §2

[5] = tested on: Rhizoctonia solani; test: Mycelial inhibition, Rhizoctonia; type: cell-based; details: 24 hours, relative to standard DIFOLATAN, read-out: Mycelial inhibition, % Standard, Rhizoc.
Experimental: (§3) A number of the compounds of the present invention were evaluated for in-vitro fungicidal effectiveness by means of a mycelial inhibition test. This test is designed to measure the fungitoxic activity of fungicidal chemicals in terms of their degree of inhibition of mycelium growth. Each compound to be tested was dissolved in acetone to 500 ppm concentration. Paper strips were infused with the particular mycelium growth by covering the paper with a potato dextrose broth culture of mycelial suspension. The papers were then placed on potato dextrose agar plates and sprayed by means of a microsprayer with the fungicidal solution. The treated paper strips were incubated at 25° C. and the data is taken after 24 hours. Fungicidal activities are measured by a zone of inhibited mycelial growth from the center of the paper strip. The effectiveness of the compounds tested for fungicidal activity is reported in Table IIa for those compounds which were effective in inhibiting mycelial growth. The activity is reported in terms of [formula]

[6] = tested on: Pigweed (Amaranthus retraflexus); test: Post-emergent herbicidal test, Pigweed; type: in vivo; details: 504 h, post-emergence, 33 micrograms/cm^2, 3 weeks
[7] = tested on: Watergrass (Ethinochloa crusgalli); test: Post-emergent herbicidal test, Watergrass; type: in vivo; details: 504 h; post-emergence; 33 micrograms/cm^2; 3 weeks
[8] = tested on: Watergrass (Ethinochloa crusgalli); test: Pre-emergent herbicidal test, Watergrass; type: in vivo; details: 504 h; pre-emergence; 33 micrograms/cm^2; 3 weeks
Experimental: as §1, §2

[9] = tested on: Elodea canadensis; test: Aquatic weeds control, Elodea; type: in vivo; details: 7 to 10 days, read-out: Algicidal Activity % Control Elodea
Experimental: (§4) Representative compounds of the invention were tested as aquatic herbicides and algicides by the following method. The weed test species were Lemna minor, Elodea canadensis and the algae used was Spirulina maxima.
(§5) An acetone solution of the test compound and a small amount of an alkylarylpolyoxyethylene glycol-containing surfactant was prepared. This solution was mixed with a nutrient solution in quantity sufficient to give a concentration of 2 ppm. Eight oz. plastic cups were filled with 150 ml of this solution. A sample of the test, Lemna and Elodea, was added together to each cup. Forty ml of Spirulina culture with the 2 ppm treatment was placed in 11/2 oz plastic cups (#4 glass vials used after June 9, 1980). The containers were then placed in an illuminated environment maintained at a temperature of about 20° C. for incubation. The containers were observed periodically for growth (as compared to an untreated check). The effectiveness of the test compound was determined based on a final observation of growth after 7 to 10 days. The results of the test on a 0-to-100 basis--0 indicating no effectiveness and 100 indicating complete effectiveness--are reported in Table IV.

[10] = tested on: Lambsquarter (Chenopodium album); test: Pre-emergent herbicidal test, Lambsquarter; type: in vivo; details: 504 h, pre-emergence, 33 micrograms/cm^2, 3 weeks, read-out: Herbicidal Activity Pre-Emergence % Control L'Qtr.
Experimental: as §1, §2

[11] = tested on: Crabgrass (Digitaria sanguinalis); test: Pre-emergent herbicidal test, Crabgrass; type: in vivo; details: 504 h, pre-emergence, 33 micrograms/cm^2, 3 weeks
Experimental: as §1, §2

[12] = tested on: Alternaria solani conidia; test: Tomato Early Blight control; type: in vivo; details: 250 ppm; tomato Bonny Best seedlings
Experimental: Compounds of the invention were tested for the control of the tomato Early Blight organism, Alternaria solani conidia. Tomato (variety Bonny Best) seedlings of 6 to 7 weeks old were used. The tomato plants were sprayed with a 250 ppm solution of the test compound in an acetone-and-water solution containing a small amount of a nonionic emulsifier. The sprayed plants were inoculated one day later with the organism, placed in the environmental chamber and incubated at 66° to 68° F. and 100% relative humidity for 24 hours. Following the incubation, the plants were maintained in a greenhouse for about 12 days. Percent diseases control was based on the percent disease development on untreated check plants.

[13] = tested on: Fusarium Moniliforme; test: Mycelial inhibition, Fusarium; type: cell-based; details: Fusarium verticillioides, 24 hours, relative to standard DIFOLATAN
Experimental: as §3

[14] = tested on: Spirulina maxima; test: Algae control, Spirulina; type: cell-based; details: Limnospira maxima, 7 to 10 days, read-out: Algicidal Activity % Control Spirulina
Experimental: as §4, §5

[15] = tested on: Crabgrass (Digitaria sanguinalis); test: Post-emergent herbicidal test, Crabgrass; type: in vivo; details: 504 h, post-emergence, 33 micrograms/cm^2, 3 weeks
[16] = tested on: Mustard (Brassica arvensis); test: Pre-emergent herbicidal test, Mustard; type: in vivo; details: 504 h, pre-emergence, 33 micrograms/cm^2, 3 weeks
Experimental: as §1, §2

| SMILES | plant injury at 33 µg/cm2 [1] [%] | pest or weed control at 33 µg/cm2 [2] [%] | pest or weed control at 250 ppm [3] [%] | plant injury at 33 µg/cm2 [4] [%] | inhibition at 500 ppm [5] [%] | pest or weed control at 33 µg/cm2 [6] [%] | pest or weed control at 33 µg/cm2 [7] [%] | pest or weed control at 33 µg/cm2 [8] [%] | activity at 2 ppm [9] [%] | pest or weed control at 33 µg/cm2 [10] [%] | pest or weed control at 33 µg/cm2 [11] [%] | % Control Tom. E. Bl. [12] [%] | inhibition at 500 ppm [13] [%] | activity at 2 ppm [14] [%] | pest or weed control at 33 µg/cm2 [15] [%] | pest or weed control at 33 µg/cm2 [16] [%] |
| --- | --- | --- | --- | --- | --- | --- | --- | --- | --- | --- | --- | --- | --- | --- | --- | --- |
| CC1(C)N=C(SCSC#N)SC1=CSc1ccc(Cl)cc1 [Compound 1, 2-thiocyanomethylthio-4,4-dimethyl-5-(4-chlorophenylthio)methylenethiazoline] | 0 | 0 | 21 | 0 | 0 | 0 | 0 | 0 | 0 | 0 | 0 | 47 | 0 | 0 | 0 | 0 |
| CC1(C)N=C(SCSC#N)SC1=C(Cl)Cl [Compound 2, 2-thiocyanomethylthio-4,4-dimethyl-5-dichloromethylenethiazoline] | 10 | 0 | 0 | 0 | 71 | 55 | 45 | 0 | 70 | 0 | 0 | 67 | 29 | 45 | 25 | 0 |
| CCC1(CC)N=C(SCSC#N)SC1=CBr [Compound 5, 2-thiocyanomethylthio-4,4-diethyl-5-bromo-methylenethiazoline] | 20 | 0 | 20 | 0 | 82 | 35 | 58 | 0 | 55 | 0 | 0 | 0 | 0 | 40 | 30 | 0 |
| C=C1SC(SCSC#N)=NC1(CC)CC [Compound 6, 2-thiocyanomethylthio-4,4-diethyl-5-methylenethiazoline] | 15 | 73 | 0 | 30 | 89 | 35 | 35 | 0 | 0 | 73 | 0 | 0 | 31 | 75 | 45 | 58 |
| C=C1SC(SCSC#N)=NC1(C)C [Compound 7, 2-Thiocyanomethylthio-4,4-dimethyl-5-methylenethiazoline] | 0 | 50 | 75 | 45 | 39 | 35 | 22 | 0 | 85 | 60 | 0 | 71 | 32 | 90 | 35 | 0 |
| C=C1SC(SCSC#N)=NC12CCCCC2 [Compound 8] | 33 | 0 | 29 | 0 | 71 | 50 | 38 | 0 | 80 | 0 | 0 | 0 | 0 | 70 | 20 | 0 |
